Experimental data as given in ChEMBL document CHEMBL5126675, “Recent Discovery of PARP7 Inhibitors as Anticancer Agents” (ACS Med Chem Lett, 2022).

Experiments:
[1] = biological target: T1, Protein mono-ADP-ribosyltransferase TIPARP (Homo sapiens, UniProt Q7Z3E1); assay: Inhibition of PARP7 (unknown origin) by HTRF assay
T1 sequence (Q7Z3E1 whole entry): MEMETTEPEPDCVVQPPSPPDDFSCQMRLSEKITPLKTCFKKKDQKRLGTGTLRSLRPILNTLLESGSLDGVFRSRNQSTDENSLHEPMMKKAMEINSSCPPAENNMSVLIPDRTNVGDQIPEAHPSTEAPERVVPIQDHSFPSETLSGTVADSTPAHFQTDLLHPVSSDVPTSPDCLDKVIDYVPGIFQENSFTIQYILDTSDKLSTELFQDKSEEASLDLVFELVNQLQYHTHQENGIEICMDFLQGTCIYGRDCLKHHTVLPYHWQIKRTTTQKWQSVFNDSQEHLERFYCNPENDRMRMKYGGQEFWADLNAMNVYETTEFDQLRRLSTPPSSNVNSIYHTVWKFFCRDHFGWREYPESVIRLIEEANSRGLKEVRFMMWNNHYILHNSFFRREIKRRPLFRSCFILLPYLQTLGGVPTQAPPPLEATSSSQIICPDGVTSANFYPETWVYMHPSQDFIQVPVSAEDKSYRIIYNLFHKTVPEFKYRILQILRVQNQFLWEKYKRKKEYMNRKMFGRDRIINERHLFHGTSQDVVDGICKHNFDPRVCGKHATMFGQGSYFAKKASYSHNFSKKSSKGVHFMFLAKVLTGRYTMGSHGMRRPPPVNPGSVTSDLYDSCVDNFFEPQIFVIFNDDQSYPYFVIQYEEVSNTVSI

[2] = Oral bioavailability in mouse at 100 mg/kg administered as single dose; assay type: ADME, organism-based; conditions: in vivo

SMILES	IC50 [1] [nM]	bioavailability [2] [%]
C[C@@H](COCCC(=O)N1CCN2c3ncc(Cl)cc3OCC[C@@H]2C1)Oc1cn[nH]c(=O)c1C(F)(F)F	1.01	106
C[C@@H](COCCC(=O)N1CCN2c3ncc(C(F)(F)F)cc3OC[C@@H]2C1)Oc1cn[nH]c(=O)c1C(F)(F)F	1.24	121
